# Assay results from US11739053B2, “P62-ZZ chemical inhibitor” (ID4PHARMA, LLC, priority 2011, dated 2023).
# How the values were obtained:
# IL-6 production = test: TNF-α induced IL-6 production by marrow stromal cells, ELISA; format: cell-based, human; conditions: normal human stromal cells, FIG. 5B
# Description: FIG. 5A-B: 5A. VCAM-1 expression using Western blot analysis. Normal human stromal cells were cultured with/without TNF and p62-ZZ inhibitors (#1-6) for 48 hours. The cell lysates were collected and VCAM-1 expression was measured using an anti-VCAM-1 antibody (Santa Cruz). FIG. 5B. IL-6 production by human and mouse marrow stromal cells by ELISA. Normal human and mouse marrow stromal cells were cultured with/without TNFα and p62-ZZ inhibitors (#1-6) for 48 hours. The cell culture media were collected and IL-6 production measured using an IL-6 ELISA kit (R &D). Data are shown as the means (n=2).
# Normal human or mouse marrow stromal cells were maintained in 10% FBS-IMDM and treated with p62-ZZ inhibitors (#1-6) for 3 hours. Then TNFα or vehicle was added for 48 hours. Cell lysates were collected and VCAM-1 expression measured by Western blot using an anti-VCAM-1 antibody (Santa Cruz). The culture media were collected and IL-6 production was measured using an IL-6 ELISA kit (R&D Company).
# [1] = test system: GFP-labeled human myeloma MM1.S cells; test: GFP-labeled MM1.S myeloma cell growth with/without stromal cells, fluorescence microscopy; format: cell-based; conditions: 10 μM, 72 hours, FIG. 3
# Description: FIG. 3 is a graph depicting MM cell growth inhibition. Data is shown as the mean±SD (n=5). *: P<0.01 compared to no-inhibitor cultures without stromal cells. **: P<0.01 compared to no-treatment co-cultured with stromal cells.
# Compound 3 was tested for its capacity to block MM-stimulated signaling in marrow stromal cells, thereby resulting in less bone destruction and MM growth. The effects of the compound 3 on GFP-labeled MM1.S myeloma cell growth with/without stromal cells, IL-6 and VCAM-1 expression on stromal cells induced by TNF-α and OCL formation, and TNF-α induced PKCζ phosphorylation, the specific kinase enzyme activated p62-ZZ, were examined. GFP-labeled MM1.S myeloma cells or normal human CFU-GM, a source of OCL precursors, were then co-cultured with human stromal cells with the p62-ZZ inhibitor. The 10 μM of inhibitor compound 3 blocked MM cell growth by 90% compared to vehicle (0.1% DMSO). […] VCAM-1 expression and IL-6 production induced by TNF-α on stromal cells was blocked by 30% and 90% respectively compared to vehicle levels. Furthermore, TNF-α induced PKC, phosphorylation blocked was in stromal cells and MM1.S when pre-treated with this p62-ZZ inhibitory compound for 3 hours.
# Primary human bone marrow stromal cells were maintained in 10% FCS-IMDM. Stromal cells (1.5×10^3 cells/well) were cultured one day prior to the start of co-culture. Green fluorescent protein (GFP)-labeled human myeloma MM1.S cells (7.5×10^3 cells/well) were then cultured with/without stromal cells in the presence or absence of the p62-ZZ inhibitors (#1-6) for 72 hours. MM cell growth was determined by fluorescence microscopy.
Structure (SMILES),IL-6 production by TNF-α stimulated normal human stromal cells (result in words) (IL-6 production),MM cell growth (result in words) [1]
OC[C@@H](O)[C@@H](O)[C@H](O)[C@H](O)C(/C=N/Nc1ccccc1)=N/Nc1ccccc1 [Compound 2],blocked IL-6 production,directly blocked MM cell growth
CCOc1ccccc1/C=N/Nc1ccc(S(=O)(=O)c2ccc(N/N=C/c3ccccc3OCC)cc2)cc1 [Compound 5],blocked IL-6 production,
O=C(O)CNC(=O)c1ccc(NCc2oc(CO)c(CNc3ccc(C(=O)NCC(=O)O)cc3)c(=O)c2O)cc1 [Compound 4],,directly blocked MM cell growth
